The source made the active and inactive calls. No cut-off for these calls is given here.
Legend:
[1] = Antiproliferative activity against human PC3 cells measured after 72 hrs by Alamar blue dye-based fluorescence analysis; format: functional, cell-based, PC-3; details: for EC50: Homo sapiens, PC-3, 72 h
[2] = Antiproliferative activity against human HT1080 cells measured after 72 hrs by Alamar blue dye-based fluorescence analysis; format: functional, cell-based; details: ht-1080
[3] = Antiproliferative activity against human SKHEP1 cells measured after 72 hrs by Alamar blue dye-based fluorescence analysis; format: functional, cell-based; details: sk-hep1
[4] = Antiproliferative activity against human 143B cells measured after 72 hrs by Alamar blue dye-based fluorescence analysis; format: functional, cell-based
[5] = Antiproliferative activity against human BT474 cells measured after 72 hrs by Alamar blue dye-based fluorescence analysis; format: functional, cell-based; details: bt-474
[6] = Antiproliferative activity against human MCF7-218 cells measured after 72 hrs by Alamar blue dye-based fluorescence analysis; format: functional, cell-based
[7] = Antiproliferative activity against human MCF7-FL cells measured after 72 hrs by Alamar blue dye-based fluorescence analysis; format: functional, cell-based
[8] = Antiproliferative activity against human MIAPaCa2 cells measured after 72 hrs by Alamar blue dye-based fluorescence analysis; format: functional, cell-based; details: mia paca-2
[9] = Antiproliferative activity against human BxPC3 cells measured after 72 hrs by Alamar blue dye-based fluorescence analysis; format: functional, cell-based; details: bxpc-3
[10] = Antiproliferative activity against human 786-O cells measured after 72 hrs by Alamar blue dye-based fluorescence analysis; format: functional, cell-based; details: 786-0
[11] = Antiproliferative activity against human HepG2 cells measured after 72 hrs by Alamar blue dye-based fluorescence analysis; format: functional, cell-based
[12] = Antiproliferative activity against human HCT116 cells measured after 72 hrs by Alamar blue dye-based fluorescence analysis; format: functional, cell-based; details: hct-116
[13] = Antiproliferative activity against human COLO205 cells measured after 72 hrs by Alamar blue dye-based fluorescence analysis; format: functional, cell-based; details: colo 205
[14] = Antiproliferative activity against human LNCAP cells measured after 72 hrs by Alamar blue dye-based fluorescence analysis; format: functional, cell-based
U-87MG ATCC [15] = test: Inhibition of mTORC1/2 in human U87 cells assessed as inhibition of Akt-phosphorylation at S473 residue by Western blot analysis; format: cell-based
[16] = biological target: Ribosomal protein S6 kinase beta-1 (Homo sapiens) (UniProt P23443); test: Inhibition of mTOR pS6K in human U87 cells assessed as inhibition of 4EBP1 phosphorylation by Western blot analysis; format: cell-based; details: U-87MG ATCC
Sequence of Ribosomal protein S6 kinase beta-1 (Homo sapiens) (P23443 whole entry, looked up): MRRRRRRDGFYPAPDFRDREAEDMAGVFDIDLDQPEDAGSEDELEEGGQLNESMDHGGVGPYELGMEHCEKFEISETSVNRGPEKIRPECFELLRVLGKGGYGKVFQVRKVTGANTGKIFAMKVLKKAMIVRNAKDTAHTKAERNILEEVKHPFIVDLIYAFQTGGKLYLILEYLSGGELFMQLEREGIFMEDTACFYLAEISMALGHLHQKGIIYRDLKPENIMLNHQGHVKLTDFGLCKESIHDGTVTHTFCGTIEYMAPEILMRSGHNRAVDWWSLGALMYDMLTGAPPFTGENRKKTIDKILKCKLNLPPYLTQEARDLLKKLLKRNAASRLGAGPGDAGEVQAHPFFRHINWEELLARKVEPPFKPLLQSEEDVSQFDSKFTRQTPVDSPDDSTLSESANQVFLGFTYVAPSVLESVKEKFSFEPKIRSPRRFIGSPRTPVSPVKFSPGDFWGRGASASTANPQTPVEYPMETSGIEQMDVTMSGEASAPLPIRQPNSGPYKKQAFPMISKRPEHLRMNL

[17] = Toxicity in mouse xenografted with human U87 cells assessed as weight loss at 0.3 to 3 mg/kg measured after 14 days; format: organism-based, U-87MG ATCC; details: in vivo, 336 h
U-87MG ATCC [18] = test: Antitumor activity against human U87 cells xenografted in mouse assessed as tumor growth inhibition at 0.3 to 3 mg/kg measured after 14 days; format: functional, organism-based
[19] = biological target: Ribosomal protein S6 kinase beta-1 (Homo sapiens) (UniProt P23443); test: Inhibition of mTOR pS6K in human U87 cells assessed as inhibition of RAS40 phosphorylation by Western blot analysis; format: cell-based; details: U-87MG ATCC
[20] = biological target: Serine/threonine-protein kinase mTOR (Homo sapiens) (UniProt P42345); test: Inhibition of mTOR in human U87 cells assessed as reduction in pAKT phosphorylation at residue […] by Western blot method; format: cell-based; details: U-87MG ATCC
[21] = biological target: Serine/threonine-protein kinase mTOR (Homo sapiens) (UniProt P42345); test: Inhibition of mTOR in human U87 cells assessed as reduction in p4EBP1 phosphorylation by Western blot method; format: cell-based; details: U-87MG ATCC
[22] = biological target: Serine/threonine-protein kinase mTOR (Homo sapiens) (UniProt P42345); test: Inhibition of mTOR in human U87 cells assessed as reduction in pRAS40 phosphorylation by Western blot method; format: cell-based; details: U-87MG ATCC

CC(C)n1cc(-c2ccc3oc(N)nc3c2)c2c(N)ncnc21
EC50 [1]: < 0.1 µM

CC(=O)Nc1nc2cc(-c3nn(C(C)C)c4ncnc(N)c34)ccc2o1
EC50 [1]: < 1 µM

CC(=O)Nc1noc2cc(-c3nn(C(C)C)c4ncnc(N)c34)ccc12
EC50 [1]: > 10 µM

CC(=O)N1CCC(n2nc(-c3ccc4oc(N)nc4c3)c3c(N)ncnc32)CC1
EC50 [1]: < 10 µM

CC(C)n1nc(-c2ccc3c(N)noc3c2)c2c(N)ncnc21
EC50 [1]: > 10 µM

Nc1nc2cc(-c3nn(C4CCC(N5CCOCC5)CC4)c4ncnc(N)c34)ccc2o1 (configuration not stated)
EC50 [1]: < 1 µM

CC(C)n1nc(-c2ccc3onc(N)c3c2)c2c(N)ncnc21
EC50 [1]: > 10 µM

Nc1nc2cc(-c3cn(C4CCOCC4)c4ncnc(N)c34)ccc2o1
EC50 [1]: < 0.1 µM

CC(C)n1nc(-c2ccc3nc(N)oc3c2)c2c(N)ncnc21
EC50 [1]: < 10 µM

Nc1nc2cc(-c3nn(C4CCOCC4)c4ncnc(N)c34)ccc2o1
EC50 [1]: < 0.1 µM

COc1cccc2c1C(=O)c1c(O)c3c(c(O)c1C2=O)C[C@@](O)(C(=O)CO)C[C@@H]3O[C@H]1C[C@H](N)[C@H](O)[C@H](C)O1 [DOXORUBICIN]
IC50 [2]: Active
IC50 [3]: Active
IC50 [4]: Active
IC50 [5]: Active
IC50 [6]: Active
IC50 [7]: Active

O=c1[nH]cc(F)c(=O)[nH]1 [FLUOROURACIL]
IC50 [8]: Active
IC50 [9]: Active
IC50 [10]: Active
IC50 [11]: Active
IC50 [12]: Active

CCc1c2c(nc3ccc(OC(=O)N4CCC(N5CCCCC5)CC4)cc13)-c1cc3c(c(=O)n1C2)COC(=O)[C@]3(O)CC [IRINOTECAN]
IC50 ([1]; pc-3): Active
IC50 [13]: Active

CC(=O)O[C@H]1C(=O)[C@@]2(C)[C@H]([C@H](OC(=O)c3ccccc3)[C@]3(O)C[C@H](OC(=O)[C@H](O)[C@@H](NC(=O)c4ccccc4)c4ccccc4)C(C)=C1C3(C)C)[C@]1(OC(C)=O)CO[C@@H]1C[C@@H]2O [PACLITAXEL]
IC50 [14]: Active

CC(C)n1nc(-c2ccc3oc(N)nc3c2)c2c(N)ncnc21 [SAPANISERTIB]
inhibition (U-87MG ATCC [15]): Dose-dependent effect
inhibition [16]: Active
Activity [17]: Non-Toxic
growth inhibition (GI) (U-87MG ATCC [18]): Active
inhibition [19]: Active
inhibition [20]: Active
inhibition [21]: Active
inhibition [22]: Active

Reference: ChEMBL document CHEMBL3882246, “Benzoxazole kinase inhibitors and methods of use” (2010)
